Laboratory results as given in the NIST ThermoML archive (doi:10.1016/j.jct.2012.03.034).

Test: xn = mol fraction of the nth substance listed
Conditions: 101 kPa, Liquid; for speed of sound: Linear variable-path acoustic interferometer; for mass density: Vibrating tube method; for viscosity: dual vibrating plate viscometer, AandD Co. Ltd Model SV-10

CC[NH2+]CC.O=S(=O)([O-])O [diethylammonium hydrogen sulfate] + CN1CCCC1=O
Conditions | mass density [kg/m3] | speed of sound [m/s] | viscosity [mPa·s]
298.15 K, x1 = 0.016 | 1050.6 | 1559 | 2.45
298.15 K, x1 = 0.0347 | 1067.85 | 1555 | 3.33
298.15 K, x1 = 0.092 | 1113.77 | 1539 | 9.94
298.15 K, x1 = 0.1316 | 1140.71 | 1534 | 15.78
298.15 K, x1 = 0.1916 | 1176.12 | 1529 | 27.2
298.15 K, x1 = 0.2992 | 1222.46 | 1518 | 49.04
298.15 K, x1 = 0.3455 | 1237.11 | 1513 | 59.35
298.15 K, x1 = 0.4175 | 1253.31 | 1508 | 73.04
298.15 K, x1 = 0.5442 | 1269.42 | 1495 | 92.75
298.15 K, x1 = 0.6829 | 1275.63 | 1481 | 101.4
298.15 K, x1 = 0.8359 | 1277.72 | 1458 | 87.14
298.15 K, x1 = 0.9342 | 1282.39 | 1440 | 58.7
298.15 K, x1 = 0.9684 | 1281.99 | 1434 | 46.45
298.15 K, x1 = 1 | 1283.95 | 1432 | 34.1
303.15 K, x1 = 0.016 | 1037.47 | 1551 | –
303.15 K, x1 = 0.0347 | 1054.26 | 1547 | 0.95
303.15 K, x1 = 0.092 | 1095.4 | 1536 | 7.28
303.15 K, x1 = 0.1316 | 1122.07 | 1529 | 12.27
303.15 K, x1 = 0.1916 | 1155.56 | 1523 | 21.6
303.15 K, x1 = 0.2992 | 1196 | 1515 | 37.85
303.15 K, x1 = 0.3455 | 1207.13 | 1510 | 45.88
303.15 K, x1 = 0.4175 | 1219.69 | 1505 | 56.62
303.15 K, x1 = 0.5442 | 1228.51 | 1491 | 72.49
303.15 K, x1 = 0.6829 | 1229.8 | 1474 | 79.75
303.15 K, x1 = 0.8359 | 1232.02 | 1446 | 69.13
303.15 K, x1 = 0.9342 | 1235.49 | 1423 | 48.37
303.15 K, x1 = 0.9684 | 1237.36 | 1415 | 35.95
303.15 K, x1 = 1 | 1239.74 | 1408 | 28.9
308.15 K, x1 = 0.016 | 1030.03 | 1533 | –
308.15 K, x1 = 0.0347 | 1043.78 | 1530 | 0.67
308.15 K, x1 = 0.092 | 1080.92 | 1521 | 4.42
308.15 K, x1 = 0.1316 | 1103.13 | 1518 | 9.53
308.15 K, x1 = 0.1916 | 1133.63 | 1511 | 17.3
308.15 K, x1 = 0.2992 | 1169.38 | 1503 | 30.7
308.15 K, x1 = 0.3455 | 1179.79 | 1500 | 36.84
308.15 K, x1 = 0.4175 | 1190.23 | 1496 | 45.89
308.15 K, x1 = 0.5442 | 1198.01 | 1485 | 57.51
308.15 K, x1 = 0.6829 | 1198.27 | 1468 | 63.11
308.15 K, x1 = 0.8359 | 1198.28 | 1437 | 55.29
308.15 K, x1 = 0.9342 | 1200.49 | 1414 | 37.86
308.15 K, x1 = 0.9684 | 1202.65 | 1404 | 27.69
308.15 K, x1 = 1 | 1205.43 | 1392 | 24.6
313.15 K, x1 = 0.016 | 1020.1 | 1529 | –
313.15 K, x1 = 0.0346 | 1031.41 | 1529 | 0.48
313.15 K, x1 = 0.092 | 1060.41 | 1521 | 2.06
313.15 K, x1 = 0.1316 | 1079.57 | 1516 | 5.97
313.15 K, x1 = 0.1916 | 1100.33 | 1511 | 13.15
313.15 K, x1 = 0.2992 | 1123.81 | 1502 | 24.74
313.15 K, x1 = 0.3455 | 1129.72 | 1498 | 30.42
313.15 K, x1 = 0.4175 | 1134.34 | 1491 | 36.87
313.15 K, x1 = 0.5442 | 1134.82 | 1474 | 46.82
313.15 K, x1 = 0.6829 | 1128.95 | 1450 | 52.39
313.15 K, x1 = 0.8359 | 1123.69 | 1411 | 46.21
313.15 K, x1 = 0.9342 | 1123.28 | 1382 | 30.9
313.15 K, x1 = 0.9684 | 1124.6 | 1370 | 23.03
313.15 K, x1 = 1 | 1126.81 | 1356 | 21.9
